Measurements from patent US8268814B2, “Substituted sulfonamide compounds” (Gruenenthal GmbH, priority 2008, dated 2012).

How the values were obtained:
[1] = biological target: T1, B1R receptor of the rat (rB1R) (Rattus norvegicus, UniProt P97583); assay: Functional FLIPR Ca2+ assay on the bradykinin 1 receptor, rat (rB1R CHO K1 cells); assay type: cell-based; conditions: test substance 10 μM; CHO K1 cells transfected with rat B1R gene; agonist Des-Arg9-bradykinin at EC80; % inhibition compared with maximum achievable inhibition; read-out: B1R antagonism, rat [10 μM] % inhibition
T1 construct: expressed in transfected cells; host or cells: CHO K1 cells (Chinese hamster ovary), stably transfected
T1 sequence (P97583 1-337): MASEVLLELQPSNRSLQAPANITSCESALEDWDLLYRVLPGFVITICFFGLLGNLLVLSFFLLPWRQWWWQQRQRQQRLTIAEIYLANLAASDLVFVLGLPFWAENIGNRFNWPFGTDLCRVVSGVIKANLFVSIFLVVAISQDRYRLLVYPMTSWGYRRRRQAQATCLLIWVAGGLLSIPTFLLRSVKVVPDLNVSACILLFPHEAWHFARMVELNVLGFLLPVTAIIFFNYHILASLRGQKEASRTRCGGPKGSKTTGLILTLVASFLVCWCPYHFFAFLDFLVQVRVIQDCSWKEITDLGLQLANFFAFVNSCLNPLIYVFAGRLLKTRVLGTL
Summary of the method: (§1)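 Stably transfected CHO K1 cells expressing human or rat B1R, Fluo-4-loaded, Ca2+ influx read by FLIPR (peak fluorescence). Compounds (10 μM for % activation) preincubated 10-20 min, then EC80 agonist added: Lys-Des-Arg9-bradykinin for human, Des-Arg9-bradykinin for rat; % inhibition versus maximal inhibition, IC50 from concentration series.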

[2] = biological target: T2, human B1R receptor (hB1R) (Homo sapiens, UniProt P46663); assay: Functional FLIPR Ca2+ assay on the bradykinin 1 receptor, human (hB1R CHO K1 cells); assay type: cell-based; conditions: test substance 10 μM; CHO K1 cells transfected with human B1R gene; agonist Lys-Des-Arg9-bradykinin at EC80; % inhibition compared with maximum achievable inhibition; read-out: B1R antagonism, human (10 μM] % inhibition
T2 construct: expressed in transfected cells; host or cells: CHO K1 cells (Chinese hamster ovary), stably transfected
T2 sequence (P46663 1-353): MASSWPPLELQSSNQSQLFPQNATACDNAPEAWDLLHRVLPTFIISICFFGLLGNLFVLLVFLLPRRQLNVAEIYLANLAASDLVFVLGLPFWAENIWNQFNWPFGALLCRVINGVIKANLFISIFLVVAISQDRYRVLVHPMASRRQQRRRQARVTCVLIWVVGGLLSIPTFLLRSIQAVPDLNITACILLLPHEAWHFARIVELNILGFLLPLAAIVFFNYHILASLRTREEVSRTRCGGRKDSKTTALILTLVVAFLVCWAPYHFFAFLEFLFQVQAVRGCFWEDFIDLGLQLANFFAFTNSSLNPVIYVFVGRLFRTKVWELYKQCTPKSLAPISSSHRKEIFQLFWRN
Summary of the method: as §1

| inhibition at 10 µM [1] | inhibition at 10 µM [2] | Compound |
| --- | --- | --- |
| 101% | 97% | O=C(C[C@@H](NS(=O)(=O)c1ccc2ccccc2c1)c1ccccc1)N1CCc2sc(CN3CCCCC3)cc2C1 [Example 26, (R)—N-(3-Oxo-1-phenyl-3-(2-(piperidin-1-ylmethyl)-6,7-dihydrothieno[3,2-c]pyridin-5(4H)-yl)propyl)naphthalene-2-sulfonamide] |
| 98% | 69% | COc1cc(C)c(S(=O)(=O)N2CCCCC2COCC(=O)N2CCc3sccc3C2c2ccccc2)c(C)c1 (stereo not shown) [Example 15, 2-((1-(4-methoxy-2,6-dimethylphenylsulfonyl)piperidin-2-yl)methoxy)-1-(4-phenyl-6,7-dihydrothieno[3,2-c]pyridin-5(4H)-yl)ethanone] |
| 102% | 100% | COc1cc(C)c(S(=O)(=O)N2CCCCC2COCC(=O)N2CCc3sc(CN4CCN(C)CC4)cc3C2)c(C)c1 (stereo not shown) [Example 50, 2-((1-(4-methoxy-2,6-dimethylphenylsulfonyl)piperidin-2-yl)methoxy)-1-(2-((4-methylpiperazin-1-yl)methyl)-6,7-dihydrothieno[3,2-c]pyridin-5(4H)-yl)ethan-1-one] |
| 102% | 83% | O=C(C[C@@H](NS(=O)(=O)c1ccc2ccccc2c1)c1ccccc1)N1CCc2onc(-c3ccncc3)c2C1 [Example 03, I—N-(3-oxo-1-phenyl-3-(3-(pyridin-4-yl)-6,7-dihydroisoxazolo[4,5-c]pyridin-5(4H)-yl)propyl)naphthalene-2-sulfonamide] |
| 95% | 76% | COc1cc(C)c(S(=O)(=O)N2CCCCC2CCC(=O)N2CCc3nc(-c4ccncc4)sc3C2)c(C)c1 (stereo not shown) [Example 52, 3-(1-(4-methoxy-2,6-dimethylphenylsulfonyl)piperidin-2-yl)-1-(2-(pyridin-4-yl)-6,7-dihydrothiazolo[5,4-c]pyridin-5(4H)-yl)propan-1-one] |
| 3% | 41% | Cc1cc(S(=O)(=O)N2CCCCC2CCC(=O)N2CCc3sccc3C2c2cccc(F)c2)c(C)cc1Cl (stereo not shown) [Example 35, 3-(1-(4-chloro-2,5-dimethylphenylsulfonyl)piperidin-2-yl)-1-(4-(3-fluorophenyl)-6,7-dihydrothieno[3,2-c]pyridin-5(4H)-yl)propan-1-one] |
| 55% | 49% | O=C(C[C@@H](NS(=O)(=O)c1ccc2ccccc2c1)c1ccccc1)N1CCc2onc(CN3CCCCC3)c2C1 [Example 17, I—N-(3-oxo-1-phenyl-3-(3-(piperidin-1-ylmethyl)-6,7-dihydroisoxazolo[4,5-c]pyridin-5(4H)-yl)propyl)naphthalene-2-sulfonamide] |
| 94% | 100% | COc1cc(C)c(S(=O)(=O)N2CCCCC2COCC(=O)N2CCc3nc(-c4ccncc4)sc3C2)c(C)c1 (stereo not shown) [Example 48, 2-((1-(4-methoxy-2,6-dimethylphenylsulfonyl)piperidin-2-yl)methoxy)-1-(2-(pyridin-4-yl)-6,7-dihydrothiazolo[5,4-c]pyridin-5(4H)-yl)ethan-1-one] |
| 100% | 100% | COc1cc(C)c(S(=O)(=O)N2CCCCC2COCC(=O)N2CCc3sccc3C2c2ccncc2)c(C)c1 (stereo not shown) [Example 36, 2-((1-(4-methoxy-2,6-dimethylphenylsulfonyl)piperidin-2-yl)methoxy)-1-(4-(pyridin-4-yl)-6,7-dihydrothieno[3,2-c]pyridin-5(4H)-yl)ethanone] |
| 105% | 100% | Cc1cccc(Cl)c1S(=O)(=O)N(CCOCC(=O)N1CCc2sc(CN3CCC3)cc2C1)C1CC1 [Example 56, N-[2-[2-[2-(Azetidin-1-yl-methyl)-4,5,6,7-tetrahydro-thieno[3,2-c]pyridin-5-yl]-2-oxo-ethoxy]-ethyl]-2-chloro-N-cyclopropyl-6-methyl-benzenesulfonic acid amide] |
| 100% | 96% | COc1cc(C)c(S(=O)(=O)N2CCCCC2COCC(=O)N2CCc3sccc3C2c2ccc(F)cc2)c(C)c1 (stereo not shown) [Example 22, 1-(4-(4-fluorophenyl)-6,7-dihydrothieno[3,2-c]pyridin-5(4H)-yl)-2-((1-(4-methoxy-2,6-dimethylphenylsulfonyl)piperidin-2-yl)methoxy)ethanone] |
| 98% | 46% | COc1cc(C)c(S(=O)(=O)N2CCCCC2CCC(=O)N2CCc3onc(-c4ccncc4)c3C2)c(C)c1 (stereo not shown) [Example 01, 3-(1-(4-Methoxy-2,6-dimethylphenylsulfonyl)piperidin-2-yl)-1-(3-(pyridin-4-yl)-6,7-dihydroisoxazolo[4,5-c]pyridin-5(4H)-yl)propan-1-one] |
| 105% | 78% | Cc1cccc(C2c3ccsc3CCN2C(=O)CCC2CCCCN2S(=O)(=O)c2cc(C)c(Cl)cc2C)c1 (stereo not shown) [Example 10, 3-(1-(4-chloro-2,5-dimethylphenylsulfonyl)piperidin-2-yl)-1-(4-m-tolyl-6,7-dihydrothieno[3,2-c]pyridin-5(4H)-yl)propan-1-one] |
| 103% | 88% | Cc1cc(S(=O)(=O)N2CCCCC2CCC(=O)N2CCc3sccc3C2c2ccncc2)c(C)cc1Cl (stereo not shown) [Example 55, 3-[1-[(4-chloro-2,5-dimethyl-phenyl)sulfonyl]-piperidin-2-yl]-1-(4-pyridin-4-yl-4,5,6,7-tetrahydro-thieno[3,2-c]pyridin-5-yl)-propan-1-one] |
| 103% | 100% | COc1cc(C)c(S(=O)(=O)N(C)CCOCC(=O)N2CCc3sc(CN4CCN(C)CC4)cc3C2)c(C)c1 [Example 51, 4-methoxy-N,2,6-trimethyl-N-(2-(2-(2-((4-methylpiperazin-1-yl)methyl)-6,7-dihydrothieno[3,2-c]pyridin-5(4H)-yl)-2-oxoethoxy)ethyl)benzenesulfonamide] |
| 35% | 40% | Cc1cc(S(=O)(=O)N2CCCCC2CCC(=O)N2CCc3sccc3C2c2ccc(Cl)nc2)c(C)cc1Cl (stereo not shown) [Example 33, 3-(1-(4-chloro-2,5-dimethylphenylsulfonyl)piperidin-2-yl)-1-(4-(6-chloropyridin-3-yl)-6,7-dihydrothieno[3,2-c]pyridin-5(4H)-yl)propan-1-one] |
| 109% | 99% | CCC1c2ccsc2CCN1C(=O)COCCN(C)S(=O)(=O)c1c(C)cc(OC)cc1C (stereo not shown) [Example 18, N-(2-(2-(4-Ethyl-6,7-dihydrothieno[3,2-c]pyridin-5(4H)-yl)-2-oxoethoxy)ethyl)-4-methoxy-N,2,6-trimethyl benzenesulfonamide] |
